Results from publication PMC10439230 (Scientific Reports, 2023).

Columns and labels:
[1] = tested on: A549 (lung adenocarcinoma); assay: Cytotoxic activity assay (MTT); type: cell-based, human; conditions: for IC50: Homo sapiens, A549, 48 h exposure, MTT, read-out: Cell lines, IC50 (μM) A549; for Selectivity Index (SI) values A549: SI = IC50 normal cell (MRC-5)/ IC50 cancer cell
Text: (§1) The synthetic compounds were screened for their cytotoxic activity using standard MTT or XTT methods[30] against a panel of nine human cancer cell lines and one normal cell line, including MDA-MB-231 (triple-negative breast cancer), T-47D (hormone-dependent breast cancer), HepG2 (hepatocellular carcinoma), A549 (lung adenocarcinoma), H69AR (multidrug-resistant small cell lung carcinoma), HuCCA-1 (cholangiocarcinoma derived from a patient), HeLa (cervical carcinoma), and two leukemia cell lines, HL-60 (acute promyelocytic leukemia) and MOLT-3 (T cell acute lymphoblastic leukemia). MRC-5 normal embryonic lung fibroblast cell line was used to represent normal cells. Chemotherapeutic drugs, doxorubicin and etoposide, were used as positive controls.
(§2) The cells were seeded into 96-well plates (100 µL for adherent cells and 75 µL for suspended cells) at a density of 5000–20,000 cells per well, depending on their growth rates. Adherent and suspended cells were then allowed to grow at 37 °C with 95% humidity and 5% CO2 for 24 h and 30 min, respectively. The cytotoxicity assay was initiated by adding an equal volume of cell culture medium containing tested compound at predetermined concentrations. Following 48 h of exposure, cell viability was determined using MTT assay for adherent cells[51],[52]or XTT assay for suspeended cells. Briefly, for adherent cells, 100 µL of the MTT reagent was added to each well, and the microtiter plates were further incubated for 2.5–4 h. The medium was subsequently replaced with 100 µL of DMSO to dissolve the purple formazan before the absorbance at 550 nm was measured using a microplate reader (a SpectraMax Plus 384) with a reference wavelength of 650 nm. For suspended cells, 75 µL of the XTT reagent was added to each well, and the cells were further incubated for 4 h. Afterwards, the absorbance of orange formazan at 492 nm was measured with a reference wavelength of 690 nm using a microplate reader.

[2] = tested on: H69AR (multidrug-resistant small cell lung carcinoma); assay: Cytotoxic activity assay (MTT); type: cell-based, human; conditions: for IC50: Homo sapiens, H69AR, 48 h exposure, MTT, read-out: Cell lines, IC50 (μM) H69AR; for Selectivity Index (SI) values H69AR: SI = IC50 normal cell (MRC-5)/ IC50 cancer cell
Text: as §1, §2

[3] = tested on: HeLa (cervical carcinoma); assay: Cytotoxic activity assay (MTT); type: cell-based, human; conditions: for IC50: Homo sapiens, 48 h exposure, MTT, read-out: Cell lines, IC50 (μM) HeLa; for Selectivity Index (SI) values HeLa: SI = IC50 normal cell (MRC-5)/ IC50 cancer cell
Text: as §1, §2

[4] = tested on: HepG2 (hepatocellular carcinoma); assay: Cytotoxic activity assay (MTT); type: cell-based, human; conditions: for IC50: Homo sapiens, HepG2, 48 h exposure, MTT, read-out: Cell lines, IC50 (μM) HepG2; for Selectivity Index (SI) values HepG2: SI = IC50 normal cell (MRC-5)/ IC50 cancer cell
Text: as §1, §2

[5] = tested on: HuCCA-1 (cholangiocarcinoma derived from a patient); assay: Cytotoxic activity assay (MTT); type: cell-based, human; conditions: for IC50: Homo sapiens, HuCC-A1, 48 h exposure, MTT, read-out: Cell lines, IC50 (μM) HuCCA-1; for Selectivity Index (SI) values HuCCA-1: SI = IC50 normal cell (MRC-5)/ IC50 cancer cell
Text: as §1, §2

[6] = tested on: MDA-MB-231 (triple-negative breast cancer); assay: Cytotoxic activity assay (MTT); type: cell-based, human; conditions: for IC50: Homo sapiens, MDA-MB-231, 48 h exposure, MTT, read-out: Cell lines, IC50 (μM) MDA-MB-231; for Selectivity Index (SI) values MDA-MB-231: SI = IC50 normal cell (MRC-5)/ IC50 cancer cell
Text: as §1, §2

[7] = tested on: T-47D (hormone-dependent breast cancer); assay: Cytotoxic activity assay (MTT); type: cell-based, human; conditions: for IC50: Homo sapiens, T47D, 48 h exposure, MTT, read-out: Cell lines, IC50 (μM) T47-D; for Selectivity Index (SI) values T47-D: SI = IC50 normal cell (MRC-5)/ IC50 cancer cell
Text: as §1, §2

[8] = tested on: HL-60 (acute promyelocytic leukemia); assay: Cytotoxic activity assay (XTT); type: cell-based, human; conditions: for IC50: Homo sapiens, HL-60, 48 h exposure, XTT, read-out: Cell lines, IC50 (μM) HL-60; for Selectivity Index (SI) values HL-60: SI = IC50 normal cell (MRC-5)/ IC50 cancer cell
Text: as §1, §2

[9] = tested on: MOLT-3 (T cell acute lymphoblastic leukemia); assay: Cytotoxic activity assay (XTT); type: cell-based, human; conditions: for IC50: Homo sapiens, MOLT-3, 48 h exposure, XTT, read-out: Cell lines, IC50 (μM) MOLT-3; for Selectivity Index (SI) values MOLT-3: SI = IC50 normal cell (MRC-5)/ IC50 cancer cell
Text: as §1, §2

[10] = tested on: MRC-5 normal embryonic lung fibroblast cell line; assay: Cytotoxic activity assay (MTT), normal cells; type: cell-based; conditions: Homo sapiens, MRC5, 48 h exposure, read-out: Cell lines, IC50 (μM) MRC-5
Text: as §1, §2

| Structure (SMILES) | IC50 [1] | Selectivity Index (SI) values A549 [1] | IC50 [2] | Selectivity Index (SI) values H69AR [2] | IC50 [3] | Selectivity Index (SI) values HeLa [3] | IC50 [4] | Selectivity Index (SI) values HepG2 [4] | IC50 [5] | Selectivity Index (SI) values HuCCA-1 [5] | IC50 [6] | Selectivity Index (SI) values MDA-MB-231 [6] | IC50 [7] | Selectivity Index (SI) values T47-D [7] | IC50 [8] | Selectivity Index (SI) values HL-60 [8] | IC50 [9] | Selectivity Index (SI) values MOLT-3 [9] | IC50 [10] |
| --- | --- | --- | --- | --- | --- | --- | --- | --- | --- | --- | --- | --- | --- | --- | --- | --- | --- | --- | --- |
| C=C1CCC2C(C)(C)CCCC2(C)C1CCC(C)=CC(=O)O (centres unmarked) [Compound 1, anticopalic acid] | 159.1 ± 0.78 µM | 1.0 | > 120 µM | 1.0 | 145.2 ± 0.31 µM | 1.1 | > 120 µM | 1.0 | 157.1 ± 0.51 µM | 1.0 | > 120 µM | 1.0 | > 120 µM | 1.0 | 103 ± 10.7 µM | 1.6 | 66.02 ± 0.12 µM | 2.5 | > 120 µM |
| C=C1CCC2C(C)(C)CCCC2(C)C1CCC(C)=CCO (centres unmarked) [Compound 2, anticopalol] | 60.52 ± 0.22 µM | 0.9 | 111.9 ± 0.71 µM | 0.5 | 37.49 ± 0.04 µM | 1.4 | 52.33 ± 0.34 µM | 1.0 | 51.5 ± 0.24 µM | 1.1 | 31.77 ± 0.13 µM | 1.7 | 52.33 ± 0.34 µM | 1.0 | 27.7 ± 0.31 µM | 2.0 | 32.2 ± 1.44 µM | 1.7 | 54.15 ± 0.31 µM |
| C=C1CCC2C(C)(C)CCC[C@]2(C)[C@H]1CC/C(C)=C/C=O (stereo partly drawn) [Compound 3, (E)-3-methyl-5-((1S,8aS)-5,5,8a-trimethyl-2-methylenedecahydronaphthalen-1-yl)pent-2-enal] | 142 ± 2.69 µM | 0.9 | > 120 µM | 0.7 | 77.4 ± 1.47 µM | 1.6 | 122.2 ± 1.03 µM | 1.0 | 131.4 ± 1.14 µM | 1.0 | 64.1 ± 1.8 µM | 2.0 | 93.9 ± 1.54 µM | 1.3 | 56.4 ± 1.37 µM | 2.2 | 37.7 ± 3.2 µM | 3.3 | 125.8 ± 0.46 µM |
| C=C1CC[C@H]2C(C)(C)CCC[C@]2(C)[C@H]1CC/C(C)=C/C(=O)NC [Compound 4a, (E)-N,3-Dimethyl-5-((1S,4aS,8aS)-5,5,8a-trimethyl-2-methylenedecahydro-naphthalen-1-yl)pent-2-enamide] | 65.1 ± 3.57 µM | 0.9 | 122 ± 3.48 µM | 0.5 | 47.7 ± 1.08 µM | 1.2 | 73.4 ± 2.06 µM | 0.8 | 62.9 ± 1.36 µM | 0.9 | 29.9 ± 0.71 µM | 1.9 | 73.4 ± 2.06 µM | 0.8 | 24.7 ± 1.41 µM | 2.3 | 25.5 ± 0.7 µM | 2.2 | 55.9 ± 0.19 µM |
| C=CCNC(=O)/C=C(\C)CC[C@H]1C(=C)CC[C@H]2C(C)(C)CCC[C@]12C [Compound 4b, (E)-N-Allyl-3-methyl-5-((1S,4aS,8aS)-5,5,8a-trimethyl-2-methylenedeca-hydronaphthalen-1-yl)pent-2-enamide] | > 120 µM | 1.0 | > 120 µM | 1.0 | 79.61 ± 0.49 µM | 1.8 | 107 ± 1.28 µM | 1.4 | > 120 µM | 1.0 | 114.3 ± 0.72 µM | 1.3 | > 120 µM | 1.0 | 22.7 ± 0.84 µM | 6.4 | 25.4 ± 0.51 µM | 5.7 | > 120 µM |
| C=C1CC[C@H]2C(C)(C)CCC[C@]2(C)[C@H]1CC/C(C)=C/C(=O)NCC(=O)O [Compound 4s, ((E)-3-methyl-5-((1S,4aS,8aS)-5,5,8a-trimethyl-2-methylenedecahydro-naphthalen-1-yl)pent-2-enoyl)glycine] | > 120 µM | 1.0 | > 120 µM | 1.0 | > 120 µM | 1.0 |  |  | > 120 µM | 1.0 | > 120 µM | 1.0 | > 120 µM | 1.0 | 75.1 ± 3.24 µM | 1.8 | 84.14 ± 0.09 µM | 1.6 | > 120 µM |
| COc1cccc2c1C(=O)c1c(O)c3c(c(O)c1C2=O)C[C@@](O)(C(=O)CO)C[C@@H]3O[C@H]1C[C@H](N)[C@H](O)[C@H](C)O1 [DOX, doxorubicin, reference compound] | 0.38 ± 0.03 µM | 2.0 | 38.08 ± 0.29 µM |  | 0.48 ± 0.01 µM | 1.6 | 0.4 ± 0.02 µM | 1.9 | 0.78 ± 0.06 µM | 1.0 | 2.7 ± 0.16 µM | 0.3 | 0.47 ± 0.03 µM | 1.6 |  |  |  |  | 0.76 ± 0.05 µM |
| COc1cc([C@@H]2c3cc4c(cc3[C@@H](O[C@@H]3O[C@@H]5CO[C@@H](C)O[C@H]5[C@H](O)[C@H]3O)[C@H]3COC(=O)[C@H]23)OCO4)cc(OC)c1O [ETO, etoposide, reference compound] |  |  |  |  |  |  |  |  |  |  |  |  |  |  | 1.21 ± 0.15 µM |  | 0.07 ± 0.12 µM |  |  |
